Laboratory results reported in patent publication US20250368614A1, “COMPOUNDS AND METHODS FOR YAP/TEAD MODULATION AND INDICATIONS THEREFOR” (OPNA BIO SA, priority 2023, published 2025).

test system: TEAD-dependent transcription (12XGTIIC TEAD response element luciferase reporter) in MSTO-211H cells; assay: TEAD-dependent transcription cell-based luciferase reporter assay in MSTO-211H+12XGTIIC cells; conditions: Homo sapiens; MSTO-211H+12XGTIIC reporter cells, 24 hours compound incubation, luminescence normalized to cell viability signal, geometric mean; read-out: MSTO-211H GMean IC50 (uM) Cell Assay Reporter Cell Variant: TEAD
Text: Determine Inhibitor Activity Against TEAD-Dependent Transcription in a Cell-Based Reporter Assay
The human mesothelioma cell line MSTO-211H was stably transfected with a pGL4.21 plasmid containing a synthetic promoter with 12 copies of the GTIIC TEAD response element that drives the expression of a luciferase reporter gene^1 using Lipofectamine transfection reagent (Thermo Fisher). Transfected cells were selected using puromycin and single cell clones expressing this construct (referred to as MSTO-211H+12XGTIIC) were generated by limiting dilution. MSTO-211H cells was characterized by genetic alterations in key components of the Hippo pathway^2, resulting in up-regulation of YAP/TEAD-mediated transcription. […] To evaluate TEAD inhibitors, the MSTO-211H+12XGTIIC cell line was seeded in a 96-well plate in 50 μL of culture media at 1×10^4 cells per well and incubated at 37° C. overnight. Serial dilutions of compounds (in total volume of 50 μL of culture media) were added to the cells and incubated at 37° C. for 24 hours. Each plate included cells treated with DMSO as high controls and cells treated with 20 μM of the reference compound K-975 (a known TEAD inhibitor^3) as low controls. Cell viability was assayed by the addition of 25 μL of CellTiter-Fluor reagent (Promega) followed by a 30-minute incubation at 37° C. and quantification of the fluorescence signal (Ex400/Em505). Subsequently, luciferase expression was assayed by the addition of 25 μL of ONE-Glo reagent (Promega) followed by a 10-minute incubation at room temperature and quantification of the luminescence signal. The luminescence signal was normalized to the fluorescence signal to correct for any loss in cell viability over the 24-hour compound incubation period. The percentage of inhibition of normalized luminescence signal, indicative of compound-mediated inhibition of TEAD-dependent transcription, at individual compound concentrations relative to high and low controls was calculated. The data were analyzed by using nonlinear regression to generate IC50 values for individual compounds.

Question: How did the IC50 turn out when `CS(=O)(=O)CCC(=O)N1CCc2c(cccc2Nc2ccc(C(F)(F)F)cc2)C1` [Compound O-0001, 3-(methylsulfonyl)-1-(5-((4-(trifluoromethyl)phenyl)amino)-3,4-dihydroisoquinolin-2(1H)-yl)propan-1-one] was run?
Answer: 0.001 to 10 µM

Question: `Cn1cncc1CC(=O)N1CCc2c(cccc2Nc2ccc(C(F)(F)F)cc2)C1` [Compound O-0002, 2-(1-methyl-1H-imidazol-5-yl)-1-(5-((4-(trifluoromethyl)phenyl)amino)-3,4-dihydroisoquinolin-2(1H)-yl)ethan-1-one] was tested. Which IC50 did it give?
Answer: 0.001 to 10 µM

Question: How did the IC50 turn out when `O=C(Cc1cncs1)N1CCc2c(cccc2Nc2ccc(C(F)(F)F)cc2)C1` [Compound O-0003, 2-(thiazol-5-yl)-1-(5-((4-(trifluoromethyl)phenyl)amino)-3,4-dihydroisoquinolin-2(1H)-yl)ethan-1-one] was run?
Answer: 0.001 to 10 µM

Question: For `O=C(Cc1cnco1)N1CCc2c(cccc2Nc2ccc(C(F)(F)F)cc2)C1` [Compound O-0004, 2-(oxazol-5-yl)-1-(5-((4-(trifluoromethyl)phenyl)amino)-3,4-dihydroisoquinolin-2(1H)-yl)ethan-1-one], which IC50 is on record?
Answer: 0.001 to 10 µM

Question: With `Cc1nc(CC(=O)N2CCc3c(cccc3Nc3ccc(C(F)(F)F)cc3)C2)co1` [Compound O-0005, 2-(2-methyloxazol-4-yl)-1-(5-((4-(trifluoromethyl)phenyl)amino)-3,4-dihydroisoquinolin-2(1H)-yl)ethan-1-one] as the compound, how does the IC50 read?
Answer: 0.001 to 10 µM

Question: With `Nc1nc(C(=O)N2CCc3c(cccc3Nc3ccc(C(F)(F)F)cc3)C2)cs1` [Compound O-0006, (2-aminothiazol-4-yl)(5-((4-(trifluoromethyl)phenyl)amino)-3,4-dihydroisoquinolin-2(1H)-yl)methanone] as the compound, how does the IC50 read?
Answer: 0.001 to 10 µM

Question: With `Nc1nc(CC(=O)N2CCc3c(cccc3Nc3ccc(C(F)(F)F)cc3)C2)cs1` [Compound O-0007, 2-(2-aminothiazol-4-yl)-1-(5-((4-(trifluoromethyl)phenyl)amino)-3,4-dihydroisoquinolin-2(1H)-yl)ethan-1-one] as the compound, how does the IC50 read?
Answer: 0.001 to 10 µM

Question: How did the IC50 turn out when `O=C(CCS(=O)(=O)C(F)(F)F)N1CCc2c(cccc2Nc2ccc(C(F)(F)F)cc2)C1` [Compound O-0010, 1-(5-((4-(trifluoromethyl)phenyl)amino)-3,4-dihydroisoquinolin-2(1H)-yl)-3-((trifluoromethyl)sulfonyl)propan-1-one] was run?
Answer: 0.001 to 10 µM

Question: How did the IC50 turn out when `CN(c1ccc(C(F)(F)F)cc1)c1cccc2c1CCN(C(=O)Cc1cn[nH]c1)C2` [Compound O-0011, 1-(5-(methyl(4-(trifluoromethyl)phenyl)amino)-3,4-dihydroisoquinolin-2(1H)-yl)-2-(1H-pyrazol-4-yl)ethan-1-one] was run?
Answer: 0.001 to 10 µM

Question: With `CN(c1ccc(C(F)(F)F)cc1)c1cccc2c1CCN(C(=O)c1cccc3[nH]ccc13)C2` [Compound O-0012, (1H-indol-4-yl)(5-(methyl(4-(trifluoromethyl)phenyl)amino)-3,4-dihydroisoquinolin-2(1H)-yl)methanone] as the compound, how does the IC50 read?
Answer: 0.001 to 10 µM

Question: `CN(c1ccc(C(F)(F)F)cc1)c1cccc2c1CCN(C(=O)c1cccc(N)c1)C2` [Compound O-0013, (3-aminophenyl)(5-(methyl(4-(trifluoromethyl)phenyl)amino)-3,4-dihydroisoquinolin-2(1H)-yl)methanone] was tested. Which IC50 did it give?
Answer: 0.001 to 10 µM

Question: For `CN(c1ccc(C(F)(F)F)cc1)c1cccc2c1CCN(C(=O)c1cccc(N)n1)C2` [Compound O-0014, (6-aminopyridin-2-yl)(5-(methyl(4-(trifluoromethyl)phenyl)amino)-3,4-dihydroisoquinolin-2(1H)-yl)methanone], which IC50 is on record?
Answer: 0.001 to 10 µM

Question: `CN(c1ccc(C(F)(F)F)cc1)c1cccc2c1CCN(C(=O)c1ccc(N)cc1)C2` [Compound O-0015, (4-aminophenyl)(5-(methyl(4-(trifluoromethyl)phenyl)amino)-3,4-dihydroisoquinolin-2(1H)-yl)methanone] was tested. Which IC50 did it give?
Answer: 0.001 to 10 µM

Question: `CN(c1ccc(C(F)(F)F)cc1)c1cccc2c1CCN(C(=O)CCS(=O)(=O)C(F)(F)F)C2` [Compound O-0016, 1-(5-(methyl(4-(trifluoromethyl)phenyl)amino)-3,4-dihydroisoquinolin-2(1H)-yl)-3-((trifluoromethyl)sulfonyl)propan-1-one] was tested. Which IC50 did it give?
Answer: 0.001 to 10 µM

Question: Which IC50 does the source give for `C=CC(=O)Nc1cccc(C(=O)N2CCc3c(cccc3N(C)c3ccc(C(F)(F)F)cc3)C2)c1` [Compound O-0017, N-(3-(5-(methyl(4-(trifluoromethyl)phenyl)amino)-1,2,3,4-tetrahydroisoquinoline-2-carbonyl)phenyl)acrylamide] here?
Answer: 0.001 to 10 µM

Question: For `C=CC(=O)Nc1cccc(C(=O)N2CCc3c(cccc3N(C)c3ccc(C(F)(F)F)cc3)C2)n1` [Compound O-0018, N-(6-(5-(methyl(4-(trifluoromethyl)phenyl)amino)-1,2,3,4-tetrahydroisoquinoline-2-carbonyl)pyridin-2-yl)acrylamide], which IC50 is on record?
Answer: 0.001 to 10 µM

Question: `C=CC(=O)Nc1ccc(C(=O)N2CCc3c(cccc3N(C)c3ccc(C(F)(F)F)cc3)C2)cc1` [Compound O-0019, N-(4-(5-(methyl(4-(trifluoromethyl)phenyl)amino)-1,2,3,4-tetrahydroisoquinoline-2-carbonyl)phenyl)acrylamide] was tested. Which IC50 did it give?
Answer: 0.001 to 10 µM

Question: With `O=C(CCS(=O)(=O)C(F)(F)F)N1CCc2c(cccc2Nc2ccc(C(F)(F)F)nc2)C1` [Compound O-0020, 1-(5-((6-(trifluoromethyl)pyridin-3-yl)amino)-3,4-dihydroisoquinolin-2(1H)-yl)-3-((trifluoromethyl)sulfonyl)propan-1-one] as the compound, how does the IC50 read?
Answer: 0.001 to 10 µM

Question: With `O=C(CCS(=O)(=O)C(F)(F)F)N1CCc2c(cccc2Nc2ccc(C(F)(F)F)cn2)C1` [Compound O-0021, 1-(5-((5-(trifluoromethyl)pyridin-2-yl)amino)-3,4-dihydroisoquinolin-2(1H)-yl)-3-((trifluoromethyl)sulfonyl)propan-1-one] as the compound, how does the IC50 read?
Answer: 0.001 to 10 µM

Question: For `CN(c1ccc(C(F)(F)F)cn1)c1cccc2c1CCN(C(=O)CCS(=O)(=O)C(F)(F)F)C2` [Compound O-0022, 1-(5-(methyl(5-(trifluoromethyl)pyridin-2-yl)amino)-3,4-dihydroisoquinolin-2(1H)-yl)-3-((trifluoromethyl)sulfonyl)propan-1-one], which IC50 is on record?
Answer: 0.001 to 10 µM

Question: Which IC50 does the source give for `CN(c1ccc(C(F)(F)F)nc1)c1cccc2c1CCN(C(=O)CCS(=O)(=O)C(F)(F)F)C2` [Compound O-0023, 1-(5-(methyl(6-(trifluoromethyl)pyridin-3-yl)amino)-3,4-dihydroisoquinolin-2(1H)-yl)-3-((trifluoromethyl)sulfonyl)propan-1-one] here?
Answer: 0.001 to 10 µM

Question: How did the IC50 turn out when `O=C(CCS(=O)(=O)C(F)(F)F)N1CCc2c(ncnc2Nc2ccc(C(F)(F)F)cc2)C1` [Compound O-0024, 1-(4-((4-(trifluoromethyl)phenyl)amino)-5,8-dihydropyrido[3,4-d]pyrimidin-7(6H)-yl)-3-((trifluoromethyl)sulfonyl)propan-1-one] was run?
Answer: 0.001 to 10 µM

Question: `CN(c1ccc(C(F)(F)F)cc1)c1ncnc2c1CCN(C(=O)CCS(=O)(=O)C(F)(F)F)C2` [Compound O-0025, 1-(4-(methyl(4-(trifluoromethyl)phenyl)amino)-5,8-dihydropyrido[3,4-d]pyrimidin-7(6H)-yl)-3-((trifluoromethyl)sulfonyl)propan-1-one] was tested. Which IC50 did it give?
Answer: 0.001 to 10 µM

Question: For `O=C(Cc1cn[nH]c1)N1CCc2c(cccc2Nc2ccc(C(F)(F)F)cc2)C1` [Compound O-0026, 2-(1H-pyrazol-4-yl)-1-(5-((4-(trifluoromethyl)phenyl)amino)-3,4-dihydroisoquinolin-2(1H)-yl)ethan-1-one], which IC50 is on record?
Answer: 0.001 to 10 µM

Question: How did the IC50 turn out when `O=C(c1cccc2[nH]ccc12)N1CCc2c(cccc2Nc2ccc(C(F)(F)F)cc2)C1` [Compound O-0027, (1H-indol-4-yl)(5-((4-(trifluoromethyl)phenyl)amino)-3,4-dihydroisoquinolin-2(1H)-yl)methanone] was run?
Answer: 0.001 to 10 µM

Question: Which IC50 does the source give for `Nc1cccc(C(=O)N2CCc3c(cccc3Nc3ccc(C(F)(F)F)cc3)C2)c1` [Compound O-0028, (3-aminophenyl)(5-((4-(trifluoromethyl)phenyl)amino)-3,4-dihydroisoquinolin-2(1H)-yl)methanone] here?
Answer: 10 to 100 µM

Question: `Nc1cccc(C(=O)N2CCc3c(cccc3Nc3ccc(C(F)(F)F)cc3)C2)n1` [Compound O-0029, (6-aminopyridin-2-yl)(5-((4-(trifluoromethyl)phenyl)amino)-3,4-dihydroisoquinolin-2(1H)-yl)methanone] was tested. Which IC50 did it give?
Answer: 10 to 100 µM

Question: Which IC50 does the source give for `Nc1ccnc(C(=O)N2CCc3c(cccc3Nc3ccc(C(F)(F)F)cc3)C2)c1` [Compound O-0030, (4-aminopyridin-2-yl)(5-((4-(trifluoromethyl)phenyl)amino)-3,4-dihydroisoquinolin-2(1H)-yl)methanone] here?
Answer: 0.001 to 10 µM

Question: With `Nc1cncc(C(=O)N2CCc3c(cccc3Nc3ccc(C(F)(F)F)cc3)C2)c1` [Compound O-0031, (5-aminopyridin-3-yl)(5-((4-(trifluoromethyl)phenyl)amino)-3,4-dihydroisoquinolin-2(1H)-yl)methanone] as the compound, how does the IC50 read?
Answer: 0.001 to 10 µM
